Consider 9 compounds from patent US12221439B2, “Tetrahydropyridopyrimidine derivatives as AhR modulators” (JAGUAHR THERAPEUTICS PTE LTD, priority 2018, dated 2025).

Data set [1] concerns the target AhR (Homo sapiens (Human), UniProt P35869). The data set can be described thus: AhR antagonism in U937 cells (Promega P450-Glo assay). In kind it is cell-based. As to conditions: inhibition of agonist (KYNA) response, CYP1A1 activity readout (Luciferin-CEE), 24 hrs, arithmetic mean of pIC50. As to the method: Examples were tested in selected biological assays two or more times. Data are reported as the arithmetic mean of the pIC50 (−log10IC50) values, where IC50 is defined as the concentration of compound producing a 50% inhibition of the agonist (KYNA) response.
In Vitro Assay 1: AhR Antagonism in U937 Cells (Promega P450-Glo™ Assay)
AhR antagonism was assessed in U937 cells (myeloid lineage cell line derived from a human histiocytic lymphoma).). Ligand binds the AhR in the cytoplasm, and the AhR-ligand complex translocates to the nucleus and forms a heterodimer with AhR nuclear translocator (Arnt). This complex binds the xenobiotic response element (XRE) in the 5′ upstream region of the CYP1A1 promoter, enhancing CYP1A1 expression. CYP1A1 activity is subsequently determined by assessing the conversion of Luciferin-CEE to luciferin, which in turn reacts with luciferase to produce light. The amount of light produced is directly proportional to cytochrome P450 activity. U937 cells in Ultraculture serum free media (Lonza) were plated at 100,000 cells per well in a round bottom 96 well tissue culture plate. Seven concentrations of test compound (final [DMSO] 1%) were added and incubated for 10 minutes before the addition of […] KYNA. The plates were then placed in an incubator at 37° C., >85% humidity, 5% CO2 for 24 hrs. After aspiration of the supernatant the CYP1A1 substrate Luciferin-CEE ([Final] 83 μM) was added and incubated for 3 hrs before the reaction was stopped by adding luciferin detection reagent and luminescence was read after 20 minutes.

The target in data set [2] is CYP1A1 (Homo sapiens (Human), UniProt P04798). The data set is described as follows: CYP1A1 inhibition assay (Promega P450-Glo, Cypex bactosomes). In kind it is biochemical. As to conditions: direct CYP1A1 inhibition, Luciferin-CEE 30 μM, NADPH, 37° C., arithmetic mean of pIC50. As to the method:
In Vitro Assay 22: […] Inhibition Assay
The direct CYP1A1 inhibitory activity of test compounds was also assessed using the Promega P450-Glo™ assay system. Seven concentrations of test compound were added to a ½ area white 96 well plate. Cypex […]. bactosomes ([final] 0.5 pmol) and CYPA substrate Luciferin-CEE ([final] 30 μM) were prepared in 0.1M potassium phosphate buffer and incubated with test compounds at 37° C. for 5 minutes. 0.2m NADPH was then added to the plates and incubated at 37° C., for 10 minutes. The reaction was stopped by adding luciferin detection reagent and luminescence was read after 20 minutes.

Sequence of AhR (P35869 11-848): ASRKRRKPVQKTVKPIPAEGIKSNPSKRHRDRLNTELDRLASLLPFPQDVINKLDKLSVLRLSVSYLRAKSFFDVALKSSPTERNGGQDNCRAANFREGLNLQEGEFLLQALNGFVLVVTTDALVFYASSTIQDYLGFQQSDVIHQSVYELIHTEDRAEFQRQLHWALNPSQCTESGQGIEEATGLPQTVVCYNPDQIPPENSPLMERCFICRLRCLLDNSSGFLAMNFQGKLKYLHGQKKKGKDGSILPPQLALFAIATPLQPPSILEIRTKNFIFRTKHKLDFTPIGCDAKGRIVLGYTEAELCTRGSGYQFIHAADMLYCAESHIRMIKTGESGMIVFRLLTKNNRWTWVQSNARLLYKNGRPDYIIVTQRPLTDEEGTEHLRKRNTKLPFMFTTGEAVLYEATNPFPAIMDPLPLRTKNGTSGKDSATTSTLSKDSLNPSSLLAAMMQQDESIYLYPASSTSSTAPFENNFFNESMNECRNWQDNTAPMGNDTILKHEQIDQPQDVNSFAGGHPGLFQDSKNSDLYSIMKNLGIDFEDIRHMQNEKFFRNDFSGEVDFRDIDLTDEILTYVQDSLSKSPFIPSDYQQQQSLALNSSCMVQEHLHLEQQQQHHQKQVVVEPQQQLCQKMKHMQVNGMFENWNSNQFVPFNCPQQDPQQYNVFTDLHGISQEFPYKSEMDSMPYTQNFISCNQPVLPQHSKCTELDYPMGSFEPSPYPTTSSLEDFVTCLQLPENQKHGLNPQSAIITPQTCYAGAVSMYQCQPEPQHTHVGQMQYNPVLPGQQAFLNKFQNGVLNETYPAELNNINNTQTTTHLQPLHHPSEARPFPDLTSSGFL
Sequence of CYP1A1 (P04798 whole entry): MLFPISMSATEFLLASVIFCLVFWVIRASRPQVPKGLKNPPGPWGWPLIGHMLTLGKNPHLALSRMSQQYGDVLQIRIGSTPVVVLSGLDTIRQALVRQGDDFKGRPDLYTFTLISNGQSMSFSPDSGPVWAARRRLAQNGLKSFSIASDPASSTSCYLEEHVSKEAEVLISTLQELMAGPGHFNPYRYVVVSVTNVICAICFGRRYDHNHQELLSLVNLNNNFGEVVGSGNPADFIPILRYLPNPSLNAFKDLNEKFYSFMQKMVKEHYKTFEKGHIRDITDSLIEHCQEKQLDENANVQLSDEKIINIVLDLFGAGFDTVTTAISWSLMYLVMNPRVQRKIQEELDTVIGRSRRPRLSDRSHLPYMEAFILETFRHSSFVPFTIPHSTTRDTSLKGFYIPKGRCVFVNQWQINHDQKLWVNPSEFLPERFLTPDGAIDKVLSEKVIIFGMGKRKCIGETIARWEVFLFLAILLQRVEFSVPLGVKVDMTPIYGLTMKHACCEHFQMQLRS

Take `Fc1cncc(-c2nc3c(c(NCCc4c[nH]c5ccccc45)n2)CNC3)c1` [Example 24, N-(2-(1H-indol-3-yl)ethyl)-2-(5-fluoropyridin-3-yl)-6,7-dihydro-5H-pyrrolo[3,4-d]pyrimidin-4-amine]: the half-maximal inhibitory concentration (IC50) in data set [1] is 12.6 nM. Besides, the “cyp1A1 pIC50” value in data set [2] is reported as 6.60.

For the compound `CS(=O)(=O)N1Cc2nc(-c3cncc(F)c3)nc(NCCc3c[nH]c4ccccc34)c2C1` [Example 25, N-(2-(1H-indol-3-yl)ethyl)-2-(5-fluoropyridin-3-yl)-6-(methylsulfonyl)-6,7-dihydro-5H-pyrrolo[3,4-d]pyrimidin-4-amine], the 50% inhibitory concentration (IC50) in data set [1] is 5.01 nM. The “cyp1A1 pIC50” value in data set [2] was found to be 6.20.

In data set [1], `Cc1cncc(-c2nc3c(c(NCCc4c[nH]c5ccccc45)n2)CNCC3)c1` [Example 26, N-(2-(1H-indol-3-yl)ethyl)-2-(5-methylpyridin-3-yl)-5,6,7,8-tetrahydro pyrido[4,3-d]pyrimidin-4-amine] gave a 50% inhibitory concentration (IC50) of 6.17 nM. Moreover, in data set [2], the “cyp1A1 pIC50” value worked out at 7.2.

Regarding `Clc1cncc(-c2nc3c(c(NCCc4c[nH]c5ccccc45)n2)CNCC3)c1` [Example 27, N-(2-(1H-indol-3-yl)ethyl)-2-(5-chloropyridin-3-yl)-5,6,7,8-tetrahydropyrido[4,3-d]pyrimidin-4-amine], the IC50 in data set [1] was 4.47 nM. In data set [2], the “cyp1A1 pIC50” value worked out at 7.2.

As for `Fc1cncc(-c2nc3c(c(NCCc4nc5ccccc5[nH]4)n2)CNCC3)c1` [Example 28, N-(2-(1H-benzo[d]imidazol-2-yl)ethyl)-2-(5-fluoropyridin-3-yl)-5,6,7,8-tetrahydropyrido[4,3-d]pyrimidin-4-amine], in data set [1], the IC50 is above 10000 nM. The “cyp1A1 pIC50” value in data set [2] is listed as 5.5.

In the case of `Fc1cncc(-c2nc3c(c(NCCc4c[nH]c5cc(F)ccc45)n2)CCNC3)c1` [Example 29, N-(2-(6-fluoro-1H-indol-3-yl)ethyl)-2-(5-fluoropyridin-3-yl)-5,6,7,8-tetrahydropyrido[3,4-d]pyrimidin-4-amine], in data set [1], the IC50 was 7.94 nM. The “cyp1A1 pIC50” value in data set [2] came to 6.7.

In turn, `Fc1cncc(-c2nc3c(c(NCCc4c[nH]c5ccc(F)cc45)n2)CCNC3)c1` [Example 30, N-(2-(5-fluoro-1H-indol-3-yl)ethyl)-2-(5-fluoropyridin-3-yl)-5,6,7,8-tetrahydropyrido [3,4-d]pyrimidin-4-amine] gave an IC50 in data set [1] of 26.3 nM. The “cyp1A1 pIC50” value in data set [2] is recorded as 6.5.

Take `Fc1cncc(-c2nc3c(c(NCCc4c[nH]c5cc(F)ccc45)n2)CNCC3)c1` [Example 31, N-(2-(6-fluoro-1H-indol-3-yl)ethyl)-2-(5-fluoropyridin-3-yl)-5,6,7,8-tetrahydropyrido[4,3-d]pyrimidin-4-amine]: the IC50 in data set [1] is 5.13 nM. In addition, the “cyp1A1 pIC50” value in data set [2] is on record as 7.2.

In data set [1], `Fc1cncc(-c2nc3c(c(NCCc4c[nH]c5ccc(F)cc45)n2)CNCC3)c1` [Example 32, N-(2-(5-fluoro-1H-indol-3-yl)ethyl)-2-(5-fluoropyridin-3-yl)-5,6,7,8-tetrahydropyrido[4,3-d]pyrimidin-4-amine] gave an IC50 of 6.03 nM. Also, in data set [2], the “cyp1A1 pIC50” value is reported as 7.1.

For orientation: IC50 means the midpoint of a concentration-inhibition curve. A high value points to a need for much substance.
